Key:
Experiment in all cases: Cancer cell growth inhibition, SRB assay
Type in all cases: cell-based, human
COLO-205 = conditions: Homo sapiens, 144 h; COLO-205 (Colon); SRB at Day 6; triplicate
SW620 = conditions: Homo sapiens, SW-620, 144 h; SW620 (Colon); SRB at Day 6; triplicate
SW626 = conditions: Homo sapiens, 144 h; SW626 (Ovarian); SRB at Day 6; triplicate
Protocol: (§1) Human cancer cells (MCF-7, H358, H460, HCT116 p53^+/+, HCT116 p53^−/−, A172, PC-3, DU-145 and SW626) were maintained in DMEM medium containing 10% Fetal Bovine Serum (FBS) (Invitrogen, Burlington, ON, Canada) and normal cells HMEC, 184A1, NHBE and PrEC were cultured in MEGM, MEGM plus transferring and cholera toxin, BEGM and PrEGM supplemented with various growth factors (Cambrex, Charles city, Iowa, USA), respectively.
(§2) Compounds of Examples S1 to S30, and 4-(carboxymethyl)-4-(6-(3-hexyloxy)phenoxy)hexanoamido)-1,1-dimethylpiperidinium 2,2,2-trifluoroactate (“Compound A”) were tested in this example. Each of the tested compounds was dissolved in DMSO and further diluted in cell culture medium for the experiments performed. Cells were seeded into 96-well plates with 1,500-5,000 cells/well according to cell growth rate. After 24 h, DMEM medium containing 10% FBS were changed to DMEM containing 3% FBS for cancer cells. The compound was added into the cell culture at the indicated concentrations, and the final concentration of DMSO was adjusted to a final concentration of 0.1%. Cell viability was assessed by Sulforhodamine B (SRB) assay at Day 6.
(§3) Sulforhodamine B (SRB) (Sigma, Oakville, ON, Canada) is a water-soluble dye that binds to the basic amino acids of the cellular proteins. Thus, colorimetric measurement of the bound dye provides an estimate of the total protein mass that is related to the cell number. The cells were fixed in situ by gently aspirating off the culture media and adding 50 ul of cold 10% Tri-chloroacetic Acid (TCA) per well and incubated at 4° C. for 30-60 min. The plates were washed five times with water and allowed to air dry for 5 min. 50 ul of 0.4% (w/v) SRB dissolved in 1% (v/v) acetic acid were added into each well, plates were then incubated at RT for 30 min for staining, washed four times with 1% acetic acid to remove any unbound dye and then allowed to air dry for 5 min. Stain was solubilized with 100 ul of 10 mM Tris pH 10.5 per well. Absorbance was read at 570 nm on a spectrophotometer. GI50 (compound concentration required for 50% of growth inhibition) was calculated using GraphPad Prism 4.0 software (GraphPad Software, Inc., San Diego, Calif., USA). Growth inhibition (%) was determined as percentage of cells remaining compared to the DMSO-treated cells as control.

MCF-7 = conditions: Homo sapiens, MCF7, 144 h; MCF-7 (Breast); SRB at Day 6; triplicate
Protocol: as §1, §2, §3

H358 = conditions: Homo sapiens, NCI-H358, 144 h; H358 (Lung); SRB at Day 6; triplicate
Protocol: as §1, §2, §3

HCT-15 = conditions: Homo sapiens, 144 h; HCT-15 (Colon); SRB at Day 6; triplicate

Row | Compound | GI50 (COLO-205) [µM] | GI50 (SW620) [µM] | GI50 (SW626) [µM] | GI50 (MCF-7) [µM] | GI50 (H358) [µM] | GI50 (HCT-15) [µM]
1 | CCCCCCCCc1ccc(NC(=O)NC2(CC(=O)O)C[N+](C)(C)C2)cc1 [Example S24, 3-(Carboxymethyl)-1,1-dimethyl-3-(3-(4-octylphenyl)ureido)azetidinium 2,2,2-trifluoroacetate] | 28 | 44 | 63 | 27 | 19 | 38
2 | CCCCCc1ccc(S(=O)(=O)NC2(CC(=O)O)C[N+](C)(C)C2)cc1 [Example S29, 3-(carboxymethyl)-1,1-dimethyl-3-(4-pentylphenylsulfonamido)-azetidinium 2,2,2-trifluoroacetate] | 28 | > 77 | > 50 | 44 | 86 | > 50
3 | CCCCCCCCc1ccc(N(C)S(=O)(=O)NC2(CC(=O)O)CCC[N+](C)(C)C2)cc1 (stereo not drawn) [Example S30, 3-(carboxymethyl)-1,1-dimethyl-3-(N-methyl-N-(4-octylphenyl)-sulfamoylamino)piperidinium 2,2,2-trifluoroacetate] | 1.6 | 3.5 | 21 | 3.1 | 2.9 | 14
